# Several values for one entry are separate records, joined by “and”; a condition that tells them apart may be missing. Equal entries are not always repeated.
# Key:
# [1] = molecular target: T1, Alpha-2B adrenergic receptor (Oryctolagus cuniculus, UniProt O77830)
# T1 sequence (O77830 whole entry): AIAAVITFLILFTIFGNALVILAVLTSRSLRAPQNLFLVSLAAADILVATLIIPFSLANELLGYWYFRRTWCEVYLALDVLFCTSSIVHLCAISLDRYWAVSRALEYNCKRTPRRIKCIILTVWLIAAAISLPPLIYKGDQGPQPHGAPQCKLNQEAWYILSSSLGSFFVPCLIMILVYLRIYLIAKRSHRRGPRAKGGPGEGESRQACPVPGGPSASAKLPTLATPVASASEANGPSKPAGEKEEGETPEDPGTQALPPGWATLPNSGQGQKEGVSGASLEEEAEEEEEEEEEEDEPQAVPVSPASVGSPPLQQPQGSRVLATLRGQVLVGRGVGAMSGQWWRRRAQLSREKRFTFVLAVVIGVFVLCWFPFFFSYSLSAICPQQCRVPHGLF
# [2] = molecular target: T2, Alpha-2A adrenergic receptor [16-465] (Rattus norvegicus, UniProt P22909)
# T2 construct: 16-465
# T2 sequence (P22909 whole entry): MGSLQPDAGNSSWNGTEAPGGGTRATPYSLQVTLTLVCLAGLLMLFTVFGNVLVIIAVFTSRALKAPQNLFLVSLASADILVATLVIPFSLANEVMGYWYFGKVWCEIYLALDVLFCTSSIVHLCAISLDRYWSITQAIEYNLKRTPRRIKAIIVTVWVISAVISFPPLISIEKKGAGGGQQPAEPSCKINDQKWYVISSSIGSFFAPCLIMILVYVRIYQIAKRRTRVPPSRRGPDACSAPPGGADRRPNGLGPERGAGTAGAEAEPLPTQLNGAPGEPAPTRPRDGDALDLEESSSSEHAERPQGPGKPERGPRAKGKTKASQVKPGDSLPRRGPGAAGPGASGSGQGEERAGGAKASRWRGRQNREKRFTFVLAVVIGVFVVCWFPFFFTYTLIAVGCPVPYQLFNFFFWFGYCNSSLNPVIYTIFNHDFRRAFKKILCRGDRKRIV
# [3] = molecular target: T3, Alpha-2A adrenergic receptor (Homo sapiens, UniProt P08913)
# T3 sequence (P08913 whole entry): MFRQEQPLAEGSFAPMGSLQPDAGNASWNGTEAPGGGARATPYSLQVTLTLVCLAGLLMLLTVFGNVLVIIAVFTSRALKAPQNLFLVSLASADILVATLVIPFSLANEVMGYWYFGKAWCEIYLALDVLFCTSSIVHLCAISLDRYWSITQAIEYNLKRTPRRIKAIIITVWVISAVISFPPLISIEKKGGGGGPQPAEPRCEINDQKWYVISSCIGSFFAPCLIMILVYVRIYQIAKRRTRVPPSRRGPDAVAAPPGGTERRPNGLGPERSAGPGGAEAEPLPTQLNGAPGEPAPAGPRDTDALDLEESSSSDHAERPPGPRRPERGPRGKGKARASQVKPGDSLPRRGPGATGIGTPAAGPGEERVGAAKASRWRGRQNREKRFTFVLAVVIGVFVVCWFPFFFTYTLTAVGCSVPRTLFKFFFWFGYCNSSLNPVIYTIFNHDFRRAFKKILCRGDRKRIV
SMILES,Ki [1],Ki [2] [nM],Ki [3] [nM]
"O=C1NCN(c2ccccc2)C12CCN(CC1COc3ccccc3O1)CC2 (stereo not given) [8-(2,3-Dihydro-benzo[1,4]dioxin-2-ylmethyl)-1-phenyl-1,3,8-triaza-spiro[4.5]decan-4-one]",169 nM and 129 nM,92,28.3
"NCC(O)c1ccc(O)c(O)c1 (stereo not drawn) [Noradrenaline,(+)]",284 nM and 57 nM,,
COC(=O)C1=COC(C)C2CN3CCc4c([nH]c5ccccc45)C3CC12 (stereo not given) [Ajmalicine],376 nM and 429 nM,1470,47.6
COc1ccccc1N1CCN(CCC2C(=O)c3ccccc3C(C)(C)C2=O)CC1 (stereo not given) [NSC_122211],> 10000 nM,484,373
CC(C)=CCOc1ccc(Cl)c2c1CCN(C)CC2 [SK&F-104078],292 nM and 191 nM,244,30.4
COc1cccc(OC)c1OCCNCC1Oc2ccccc2OC1c1ccccc1 (stereo not given) [NSC_185453],5.3 nM and 11.8 nM,142,3.5
COc1cc2nc(N3CCN(C(=O)c4ccco4)CC3)nc(N)c2cc1OC [[3H]-Minipress],> 10000 nM,,
CN1C[C@H](Cn2ccnc2-c2ccccc2)C[C@@H]2c3cccc4[nH]c(Br)c(c34)C[C@H]21 [BAM-1303],95.3 nM and 46 nM,313,18.1

# The next lines start with results.
Ki [1],Ki [2] [nM],SMILES,Ki [3] [nM]
6.3 nM and 4.5 nM,,Cc1cc(C(C)(C)C)c(O)c(C)c1CC1=NCCN1 [SMR000059324],
2690 nM and 3130 nM,,CN(C)CCCN1c2ccccc2Sc2ccc(Cl)cc21 [[3-(2-Chloro-phenothiazin-10-yl)-propyl]-dimethyl-amine(Chlorpromazine)],
24.1 nM and 18.4 nM,,Cc1ccc(N(CC2=NCCN2)c2cccc(O)c2)cc1 [SMR000059054],
7.3 nM and 6.4 nM,0.95,COC1(C2=NCCN2)COc2ccccc2O1 (stereo not given) [RX821002],

# Source: BindingDB's records for PubMed 11408545 (Glaxosmithkline, 2001)
